Drawing on US9730447B2, “Fungicidal amides” (E I DU PONT DE NEMOURS AND COMPANY, priority 2013, dated 2017), this text covers pest or weed control and melting point for two compounds.

One series concerns Botrytis cinerea. In words: Test A: preventive spray on tomato seedlings, Botrytis cinerea (gray mold), visual disease rating. The conditions noted are these: 96 h, 100 = 100% disease control, 0 = no control relative to controls, unmarked values. Format: in vivo. Summed up:
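Tomato seedlings sprayed to run-off with 40 ppm or 10 ppm suspensions (160 or 40 g ai/ha) in acetone/water with 250 ppm surfactant. Inoculated with B. cinerea spores next day, held saturated at 20 °C for 48 h, then 27 °C for 2 days. Visual rating, 0–100% disease control relative to controls.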

What is called pest or weed control is how far the test organism was held down. Lower therefore signals weak suppression. A word on the melting point: it is the temperature of the solid-liquid transition. As for `O=C(Nc1ccccc1-c1cnc(-n2ccc(C(F)(F)F)n2)nc1)c1ncccc1C(F)(F)F` [Compound 56, 3-(trifluoromethyl)-N-[2-[2-[3-(trifluoromethyl)-1H-pyrazol-1-yl]-5-pyrimidinyl]phenyl]-2-pyridinecarboxamide], the melting point was 178 to 180 °C. In the series with Botrytis cinerea, this compound came in with a pest or weed control at 40 µg/mL, 160 g/ha of 16%.

`Cn1cc(C(=O)Nc2ccccc2-c2cnc(-n3ccc(C(F)(F)F)n3)nc2)c(C(F)F)n1` [Compound 58, 3-(difluoromethyl)-1-methyl-N-[2-[2-[3-(trifluoromethyl)-1H-pyrazol-1-yl]-5-pyrimidinyl]phenyl]-1H-pyrazole-4-carboxamide] registered a melting point of 167 to 169 °C. In the series on Botrytis cinerea, this compound yielded a pest or weed control at 40 µg/mL, 160 g/ha of 0%.
